Columns and labels:
[1] = target: TSPO protein separated and purified from rat heart (Rattus norvegicus (Rat), UniProt P16257); assay: TSPO and radioligand (3H-PK11195) competitive binding test; details: for Inhibition rate (%): n = 6 times; for IC50 / Ki: 9 gradient concentrations, plotting and fitting
Experimental: In the present test, TSPO protein separated and purified from rat heart was used as screening target, via competitive binding test with radioligand (^3H-PK11195), to screen TSPO ligand compounds.
Wister rats, 220-260 g, female and male, were sacrificed by decapitation and the rat heart were rapidly separated, weighed and to which homogenized in 10 times volume of Tris-HCl buffer solution (50 mM Tris-HCl, 5 mM MgCl2, 1 mM EDTA, 0.5% (W/V) BSA, 1 mM PMSF, 3 μg/ml proteinase inhibitor, 0.1% NaN3, 0.32M sucrose, pH 7.4) at 15,000 rpm for 30 s, total 5 times. The homogenate was centrifuged under 1000×g for 10 minutes and the supernatant was then centrifuged under 30000×g for 20 minutes. The precipitate was collected, and resuspended with 10 times volume of Tris-HCl buffer solution (pH 7.4) relative to the original weight, then centrifuged under 30000×g for 20 minutes. The precipitate was washed with the same buffer solution, centrifuged under 30000×g for 20 minutes and the precipitate was suspended with the above buffer solution. After sub-packaged (the whole operation procedures were performed under ice bath), the product was stored at −80° C.
3) Competitive Binding Test of Drug to the Receptor (Rat Heart TSPO) and Radioligand (^3H-PK11195):
(1) tubes were placed in reaction condition of 30° C.
(2) all tubes were added with 20 μg of receptor protein in order;
(3) the test tubes were added in order with 20 μL of drugs in certain concentrations;
(4) the non-specific binding tubes were added with 20 μL of non-tagged ligand (PK11195), the final concentration of the non-tagged ligand was 0.1 mM, pre-reacted for 30 min;
(5) all tubes were added in order with 25 μL ^3H-PK11195, the final concentration of the labeled ligand was 1.5 nM;
(6) Tris-HCl Buffer pH7.4 was used to complement the reaction volumes of all tubes to reach 200 μL;
(7) the reaction was performed under 30° C. reaction condition for 1 h;
(8) Then samples were applied to 49-type glass fibre filter, vacuum suction filtered, then washed with 2 ml ice-cold Tris-HCl buffer solution (50 mM Tris-HCl buffer solution, 1 mM EDTA, 5 mM MgCl2, 1 mM PMSF, 0.1% NaN3, 3 μg/ml proteinase inhibitor, pH 7.4). The filter was dried and placed in a scintillation vial with 1 ml of scintillation fluid. The radio-activity was measured by a scintillation counter.

| SMILES | melting point | Inhibition rate (%) ([1]; 1 × 10^−5M) | Inhibition rate (%) ([1]; 1 × 10^−7M) | Inhibition rate (%) ([1]; 1 × 10^−9M) | IC50 [1] | Ki [1] |
| --- | --- | --- | --- | --- | --- | --- |
| CCN(Cc1ccccc1)C(=O)Cc1c(-c2ccc(Cl)cc2)nc2cc(C)ccn12 [Compound 1, N-benzyl-N-ethyl-2-(4-chlorophenyl)-7-methylimidazo[1,2-a]pyridine-3-acetamide] | 192 to 193 °C | 100% | 87% | 12% |  |  |
| CCN(Cc1ccccn1)C(=O)Cc1c(-c2ccc(Cl)cc2)nc2cc(C)ccn12.Cl [Compound 2, N-ethyl-N-(2-pyridinylmethyl)-2-(4-chlorophenyl)-7-methylimidazo[1,2-a]pyridine-3-acetamide.hydrochloride] | 178 to 180 °C | 100% | 59% | 0% |  |  |
| CCN(Cc1cccnc1)C(=O)Cc1c(-c2ccc(Cl)cc2)nc2cc(C)ccn12.Cl [Compound 3, N-ethyl-N-(3-pyridinylmethyl)-2-(4-chlorophenyl)-7-methylimidazo[1,2-a]pyridine-3-acetamide.hydrochloride] | 236 to 238 °C | 100% | 25% | 0% |  |  |
| CCN(Cc1ccncc1)C(=O)Cc1c(-c2ccc(Cl)cc2)nc2cc(C)ccn12.Cl [Compound 4, N-ethyl-N-(4-pyridinylmethyl)-2-(4-chlorophenyl)-7-methylimidazo[1,2-a]pyridine-3-acetamide.hydrochloride] | 245 to 247 °C | 100% | 50% | 0% |  |  |
| COCCN(Cc1ccccn1)C(=O)Cc1c(-c2ccc(Cl)cc2)nc2cc(C)ccn12.Cl [Compound 5, N-(2-methoxyethyl)-N-(2-pyridinylmethyl)-2-(4-chlorophenyl)-7-methylimidazo[1,2-a]pyridine-3-acetamide.hydrochloride] | 238 to 239 °C | 100% | 43% | 0% |  |  |
| COCCN(Cc1cccnc1)C(=O)Cc1c(-c2ccc(Cl)cc2)nc2cc(C)ccn12.Cl [Compound 6, N-(2-methoxyethyl)-N-(3-pyridinylmethyl)-2-(4-chlorophenyl)-7-methylimidazo[1,2-a]pyridine-3-acetamide.hydrochloride] | 234 to 235 °C | 70% | 0% | 0% |  |  |
| CCN(Cc1ccccc1)C(=O)Cc1c(-c2ccc(Cl)c(Cl)c2)nc2cc(C)ccn12 [Compound 7, N-benzyl-N-ethyl-2-(3,4-dichlorophenyl)-7-methylimidazo[1,2-a]pyridine-3-acetamide] | 180 to 182 °C | 99% | 72% | 10% | 116 nM | 49.2 nM |
| CCN(Cc1cccnc1)C(=O)Cc1c(-c2ccc(Cl)c(Cl)c2)nc2cc(C)ccn12.Cl [Compound 9, N-ethyl-N-(3-pyridinylmethyl)-2-(3,4-dichlorophenyl)-7-methylimidazo[1,2-a]pyridine-3-acetamide.hydrochloride] | 245 to 248 °C | 86% | 8% | 0% |  |  |
| COCCN(Cc1cccnc1)C(=O)Cc1c(-c2ccc(Cl)c(Cl)c2)nc2cc(C)ccn12.Cl [Compound 12, N-(2-methoxyethyl)-N-(3-pyridinylmethyl)-2-(3,4-dichlorophenyl)-7-methylimidazo[1,2-a]pyridine-3-acetamide.hydrochloride] | 235 to 237 °C | 80% | 20% | 0% |  |  |
| CCN(Cc1ccccn1)C(=O)Cc1c(-c2ccc(C)cc2)nc2cc(C)ccn12.Cl [Compound 14, N-ethyl-N-(2-pyridinylmethyl)-2-(4-methylphenyl)-7-methylimidazo[1,2-a]pyridine-3-acetamide.hydrochloride] | 218 to 220 °C | 97% | 66% | 14% | 91 nM | 38.7 nM |
| CCN(Cc1cccnc1)C(=O)Cc1c(-c2ccc(C)cc2)nc2cc(C)ccn12.Cl [Compound 15, N-ethyl-N-(3-pyridinylmethyl)-2-(4-methylphenyl)-7-methylimidazo[1,2-a]pyridine-3-acetamide.hydrochloride] | 251 to 253 °C | 90% | 15% | 0% |  |  |
| CCN(Cc1ccncc1)C(=O)Cc1c(-c2ccc(C)cc2)nc2cc(C)ccn12.Cl [Compound 16, N-ethyl-N-(4-pyridinylmethyl)-2-(4-methylphenyl)-7-methylimidazo[1,2-a]pyridine-3-acetamide.hydrochloride] | 253 to 255 °C | 72% | 41% | 0% |  |  |
| COCCN(Cc1ccccn1)C(=O)Cc1c(-c2ccc(C)cc2)nc2cc(C)ccn12.Cl [Compound 17, N-(2-methoxyethyl)-N-(2-pyridinylmethyl)-2-(4-methylphenyl)-7-methylimidazo[1,2-a]pyridine-3-acetamide.hydrochloride] | 239 to 240 °C | 83% | 9% | 0% |  |  |
| COCCN(Cc1cccnc1)C(=O)Cc1c(-c2ccc(C)cc2)nc2cc(C)ccn12.Cl [Compound 18, N-(2-methoxyethyl)-N-(3-pyridinylmethyl)-2-(4-methylphenyl)-7-methylimidazo[1,2-a]pyridine-3-acetamide.hydrochloride] | 224 to 226 °C | 69% | 32% | 0% |  |  |
| CCN(Cc1ccccc1)C(=O)Cc1c(-c2ccc(OC)cc2)nc2cc(C)ccn12 [Compound 19, N-benzyl-N-ethyl-2-(4-methoxyphenyl)-7-methylimidazo[1,2-a]pyridine-3-acetamide] | 175 to 178 °C | 94% | 76% | 0% |  |  |
| CCN(Cc1ccccn1)C(=O)Cc1c(-c2ccc(OC)cc2)nc2cc(C)ccn12.Cl [Compound 20, N-ethyl-N-(2-pyridinylmethyl)-2-(4-methoxyphenyl)-7-methylimidazo[1,2-a]pyridine-3-acetamide.hydrochloride] | 228 to 230 °C | 61% | 63% | 0% |  |  |
| CCN(Cc1cccnc1)C(=O)Cc1c(-c2ccc(OC)cc2)nc2cc(C)ccn12.Cl [Compound 21, N-ethyl-N-(3-pyridinylmethyl)-2-(4-methoxyphenyl)-7-methylimidazo[1,2-a]pyridine-3-acetamide.hydrochloride] | 230 to 232 °C | 43% | 11% | 0% |  |  |
| CCN(Cc1ccncc1)C(=O)Cc1c(-c2ccc(OC)cc2)nc2cc(C)ccn12.Cl [Compound 22, N-ethyl-N-(4-pyridinylmethyl)-2-(4-methoxyphenyl)-7-methylimidazo[1,2-a]pyridine-3-acetamide.hydrochloride] | 239 to 242 °C | 63% | 9% | 4% |  |  |
| COCCN(Cc1ccccn1)C(=O)Cc1c(-c2ccc(OC)cc2)nc2cc(C)ccn12.Cl [Compound 23, N-(2-methoxyethyl)-N-(2-pyridinylmethyl)-2-(4-methoxyphenyl)-7-methylimidazo[1,2-a]pyridine-3-acetamide.hydrochloride] | 214 to 216 °C (dec.) | 85% | 2% | 3% |  |  |
| COCCN(Cc1cccnc1)C(=O)Cc1c(-c2ccc(OC)cc2)nc2cc(C)ccn12.Cl [Compound 24, N-(2-methoxyethyl)-N-(3-pyridinylmethyl)-2-(4-methoxyphenyl)-7-methylimidazo[1,2-a]pyridine-3-acetamide.hydrochloride] | 243 to 245 °C | 17% | 3% | 0% |  |  |
| CN1C(=O)CN=C(c2ccc(Cl)cc2)c2cc(Cl)ccc21 [Compound R05-4864, 4′-chlorodiazepam, reference compound] |  | 100% | 82% | 57% |  |  |

Source: US8980887B2, “2-aryl imidazo[1,2-a]pyridine-3-acetamide derivatives, preparation methods and uses thereof” (Institute of Pharmacology, priority 2010, dated 2015)
